{"source": "patent US20230003644A1", "about": "“PHOTONIC CHIP FOR MONITORING ACTIVITIES OF LIVING CELLS” (THE UNIVERSITY OF HONG KONG, priority 2021, published 2023)", "key": {"NIH 3T3 cells": {"test_system": "NIH 3T3 cells", "assay": "Label-free monitoring of cell adhesion, morphology and intracellular dynamics on the LED/GaN chipscope (photocurrent and DIC imaging)", "format": "cell-based", "text": "As a monolithic integration design of the chip, the same shared sapphire substrate can realize the light coupling from the LED to the PD without any external optics, as shown in FIG. 5a. In particular, when the lights emitted from LED reached external media with a low RI (i.e., nmedia<nsapphire), total internal reflection occurred at the sapphire/media interface, causing some light to be reflected into the light-detecting region. The intensity of the reflected light is then detected by the PD. Since the critical angle enlarges as the refractive index increases, less light is reflected back to the PD, resulting in a decrease in the photocurrent. When the cells are in contact with the chip surface, the sensor provides a rapid photocurrent response due to the obvious RI change from sapphire-culture medium (1.78 to 1.337) to sapphire-cells (1.78 to 1.343-1.48). Furthermore, the formation of strong cell-substrate adhesion and/or the evolution of cell morphology could also result in changes in the recorded photocurrent.\nNIH 3T3 cells are used in the present study due to their rapid adhesion response and significant cell area changes during spreading. First performed a live/dead assay test to evaluate the potential phototoxicity of the chip to the cells. […] Next, after the chip was stabilized in the incubator at 37° C., the cell suspension was added into the chip chamber. […] Benefitting from the integrated mini-DIC imaging system, we can clearly capture the cell morphology changes in real-time. As shown in the top panel of FIG. 7b, the round cells gradually precipitated onto the chip surface in the first 30 min (step 1), and then started to extend in the next 4 h (step 2). After that, they continued to flatten and formed a dense monolayer sheet covering the entire chip surface (step 3). These observed cell morphology changes closely matched the optical response of the chip, indicating the successful integration of GaN chip-based sensing and DIC imaging units in our system for cellular activity monitoring. Additionally, to mimic the cell detachment process (step 4), we treated the cells with sodium dodecyl sulfate (SDS), a known surfactant that can detach and lyse adhering cells from culture dishes or flasks.\n• Cells (NIH 3T3, 0.3 million/mL, 500 uL, 37° C.) were seeded on the LED chip and transferred to the incubator (37° C.). Then the ammeter started to monitor the optical current at specific time points. The control experiment was performed by monitoring the solo cell culture medium with an identical chip (DMEM, 500 uL, 37° C.). • The bright-field images of cells were collected at specific time points to monitor the initial stage of cells adhesion and extension. The cells were cultured on sapphire, the substrate of which was identical with the top layer of LED chips.\n3T3 cells were grown on the chip surface for overnight and then were washed once and replaced with HEPES buffer (HBSS). After the system was restabilized, various concentrations of thrombin (MCE) were injected into the cell chamber. The signal dynamics were recorded by a meter."}, "intracellular Ca2+": {"test_system": "intracellular Ca2+", "assay": "Living cell calcium tracking (Fluo-3 fluorescence)", "format": "cell-based", "conditions": "low-dose thrombin (2 U/mL)", "procedure": "After the cells were grown on the confocal dish for 24 h, they were washed by PBS and cultured in living cell fluorescence imaging medium (Thermo) with the calcium indicator (Fluo-3, Invitrogen, […]) and pluronic F-127 (0.02%) in incubator for 1 h. They were then washed by fresh culture medium twice and incubated for a further 30 min to allow complete de-esterification of intracellular acetoxymethyl esters. The living cell fluorescent images were then captured by fluorescence microscope (Zeiss) with the frame rate of 1 side/min."}, "[1]": {"test_system": "human lung adenocarcinoma cells (A549)", "assay": "GaN chipscope drug screening: cytotoxicity of an anticancer drug on an A549 cell monolayer (photocurrent and imaging)", "format": "cell-based", "conditions": "for decrease of cell confluence: after 24 h incubation", "procedure": "The A549 cells are seeded in the chamber of the platform and cultured for 24 h for fully spreading. Afterward, 10 μM, 30 μM or 50 μM of β-lapachone is added into the chambers, respectively.\nAdditionally, the photocurrent curves offered valuable practical information for the study of drug-cell interactions. First, by plotting the slope of the tangent line, the speed of cell response at different periods was analyzed. […] Indeed, a higher dose is more toxic and induces faster cell death. Thirdly, by coupling the imaging system, we were able to qualitatively and quantitatively analyze the cell-drug interactions. As shown in FIG. 9b-d, the cells shrank in a dose-dependent manner after β-lapachone treatment. Specifically, cells treated with a lower dose (10 μM) slowly shrank over time, but there is no obvious increase in intercellular spaces during the 24 h. […] It is believed that the increase in photocurrent in higher dose-treated cells is contributed by both cell morphology changes as well as by cell intracellular dynamics alternation. Further, the cell confluency is calculated based on the photos taken by the imaging system."}, "[2]": {"test_system": "human lung adenocarcinoma cells (A549)", "assay": "GaN chipscope drug screening: cytotoxicity of an anticancer drug on an A549 cell monolayer (photocurrent and imaging)", "format": "cell-based", "conditions": "A549, 5 hours of drug treatment"}, "[3]": {"test_system": "human monocytic THP-1 cells", "assay": "GaN chipscope monitoring of cell differentiation (cell area and roundness from images)", "format": "cell-based", "conditions": "THP-1 monocyte to M0, PMA 25 ng/mL, 3-9 h after stimulation", "text": "The cell refractive index is an intrinsic optical parameter that varies with different cell phenotypes. This inspired the exploration of whether the sensing platform could track online the dynamics of cell differentiation and distinguish the different cell phenotypes. In this experiment, human monocytic THP-1 cells are employed as the cell model due to their multi-phenotypic characteristics, including the initial suspended monocyte, adhered macrophage (M0), and two major polarized states (adhered M1 and M2). Here, THP-1 cells differentiated from suspended state (monocyte) to adhered M0 state by phorbol 12-myristate 13-acetate (PMA), followed by induction of the resultant M0 cells to polarize to M1 by LPS/FN-gamma. The process is monitored throughout by the GaN chipscope system (FIG. 10a).\nConsistent with the photocurrent signal, the imaging system recorded a fast cell rolling behavior in the initial 30 min before the cells settled down (FIG. 10b). PMA (25 ng/mL) is then loaded to trigger monocyte to macrophage differentiation. It is evident from the photocurrent signal that monocytes responded strongly against PMA in 3-9 h after stimulation, and this response became mild in the following 11 h (FIG. 10b).\nPhorbol-12-myristate-13-acetate (PMA, MCE, 25 ng/mL) was used to induce monocytes differentiation to M0 macrophages. […]"}, "THP-1 cells": {"test_system": "THP-1 cells", "assay": "Flow cytometry of macrophage surface markers CD11b and CD80", "format": "cell-based, human", "conditions": "THP-1 cells after incubation with PMA", "procedure": "Phorbol-12-myristate-13-acetate (PMA, MCE, 25 ng/mL) was used to induce monocytes differentiation to M0 macrophages. For further polarization, 100 ng/mL lipopolysaccharide (LPS, Thermo) and 20 ng/mL interferon-γ (IFN-γ, Thermo) were added to the culture to induce M1 generation. The cells were stimulated to M0 and M1 macrophages for 24 h. Flow cytometry and immunofluorescence staining were used to assess the expression of macrophage-specific cell surface marker: CD11 b for monocyte/macrophage differentiation and CD 80 for M1 macrophage polarization.\nThe harvested cells were washed with cold PBS and then the Fc receptor binding sites were blocked by incubating with Human TruStain FcX™ (422302, Biolegned) on ice for 20 min. The cells were then incubated with either FITC labeled CD 11 b (301329, Biolegend) or FITC labeled CD 80 (305206, Biolegend) in darkness for another 30 min. After centrifugation, the cells were washed twice with FACS buffer (PBS containing 2% BSA) and immediately measured by the flow cytometer Novoexpress (Agilent)."}}}
{"compound": "thrombin", "values": [{"measurement": "time at which photocurrent reached a plateau", "setting": "NIH 3T3 cells; 3T3 monolayer, thrombin 150 U/mL", "result": 50, "unit": "min"}, {"measurement": "maximal change (increase) of photocurrent", "setting": "NIH 3T3 cells; 3T3 monolayer, thrombin high dose 150 U/mL", "result": 1.66, "unit": "%"}, {"measurement": "decrease of photocurrent signal", "setting": "NIH 3T3 cells; 3T3 monolayer, thrombin low dose 2 U/mL, first 10 min, returned to initial level in next 30 min", "result": 0.94, "unit": "%"}, {"measurement": "calcium fluorescence response of living cells", "setting": "intracellular Ca2+", "result": "biphasic cell response"}]}
{"compound": "CCCCCCCCCCCCOS(=O)(=O)[O-].[Na+]", "note": "[SDS, sodium dodecyl sulfate]", "values": [{"measurement": "rapid increase of photocurrent signal after addition", "setting": "NIH 3T3 cells; 3T3 monolayer, cell detachment step", "result": 4.24, "unit": "%"}, {"measurement": "detachment of cell monolayer from chip surface", "setting": "NIH 3T3 cells; 3T3 monolayer, within a few seconds of loading", "result": "completely detached"}]}
{"compound": "CC1(C)CCC2=C(O1)c1ccccc1C(=O)C2=O", "note": "[β-lapachone]", "values": [{"measurement": "reaction time of the cells from photocurrent curve", "setting": "[1]; A549, 10 μM", "result": 20.2, "unit": "h"}, {"measurement": "reaction time of the cells from photocurrent curve", "setting": "[1]; A549, 30 μM", "result": 11.6, "unit": "h"}, {"measurement": "reaction time of the cells from photocurrent curve", "setting": "[1]; A549, 50 μM", "result": 12.5, "unit": "h"}, {"measurement": "cytotoxicity in A549 cells (photocurrent increase with drug concentration)", "setting": "[1]; A549, 10, 30, 50 μM", "result": "dose-depend cytotoxicity"}, {"measurement": "speed of cell response (slope of photocurrent curve) at 50 μM relative to 10 μM", "setting": "[1]; A549, first 5 h of stimulation", "result": 6.05, "unit": "times"}, {"measurement": "speed of cell response (slope of photocurrent curve) at 50 μM relative to 30 μM", "setting": "[1]; A549, first 5 h of stimulation", "result": 2.85, "unit": "times"}, {"measurement": "decrease of cell confluence", "setting": "[1]; A549, high dose (50 μM)", "result": 23.1, "unit": "%"}, {"measurement": "decrease of cell confluence", "setting": "[1]; A549, low dose (10 μM)", "result": 0, "unit": "%"}, {"measurement": "decrease of cell confluence", "setting": "[1]; A549, medium dose (30 μM)", "result": 19.0, "unit": "%"}, {"measurement": "photocurrent response monitored by the LED sensor during drug treatment", "setting": "[2]", "result": "gradually increased"}]}
{"compound": "Cc1ccc2c(c1)C(=O)C1(O)CCN(c3ccccc3)C1=N2", "note": "(centres unmarked) [blebbistatin]", "values": [{"measurement": "cell morphology after treatment (imaging)", "setting": "NIH 3T3 cells; 3T3 cells, 50 μM, next 1 h, increased cell gaps and dendritic morphologies", "result": "gradually shrank"}, {"measurement": "increase of relative optical current compared to the control group", "setting": "NIH 3T3 cells; 3T3 cells, blebbistatin 50 μM, treated for 50 min", "result": 1.02, "unit": "%"}]}
{"compound": "CCCCCCCCCCCCCC(=O)O[C@@H]1[C@@H](C)[C@@]2(O)[C@@H](C=C(CO)C[C@]3(O)C(=O)C(C)=C[C@@H]23)[C@@H]2C(C)(C)[C@]12OC(C)=O", "note": "[PMA, phorbol 12-myristate 13-acetate]", "values": [{"measurement": "increase in cell spreading area", "setting": "[3]", "result": 137, "unit": "%"}, {"measurement": "expression of CD11b", "setting": "THP-1 cells", "result": "significantly increased"}]}
